Values joined by “and” are separate entries in the source; they are usually repeats but may differ in a detail not shown here. Equal values may be shown once.
Key:
[1] = tested on: endogenous CD8+ T cells; assay: Flow cytometry of endogenous CD8+ T cells in spleen, LN, tumor (Figure 2F-G, S1F-I); assay type: in vivo, mouse; conditions: for Frequencies of endogenous CD8⁺ T cells in LN: Supplemental Figure 1I left; for Number of endogenous CD8⁺ T cells in LN: Supplemental Figure 1I right; for CD8 gate number: representative flow plot
Experimental: C57BL/6 mice were subcutaneously injected with 5 × 10^5 B16-OVA melanoma cells. Five days after tumor implantation, mice received an intravenous infusion of 2 × 10^6 in vitro–differentiated Th9 cells (cultured for 5 days), which were derived from OT-II CD45.1 donor mice, accompanied by 4 × 10^5 OVA peptide–pulsed DCs via the tail vein. To enhance T cell engraftment and facilitate lymphodepletion, a single intraperitoneal injection of cyclophosphamide (200 mg/kg, Sigma, catalog C0768) was administered 1 day prior to T cell transfer. Mice were euthanized at designated time points for the collection and analysis of spleens, tumor-draining lymph nodes, and tumor tissues.
Details regarding staining panels (human and mouse), reagents (including clones and catalog numbers), acquisition settings, compensation/controls, and analysis procedures are provided in Supplemental Methods.
BioLegend, Cat. No. 422301 or Mouse TruStain FcX™, BioLegend, Cat. No. 101319) for 10 minutes at 4°C. For surface marker detection, cells were stained with fluorochrome-conjugated monoclonal antibodies in 96-well V-bottom plates and incubated on ice for 30 minutes. After staining, cells were washed twice and resuspended in FACS buffer for analysis.
Prior to intracellular cytokine staining, cells were restimulated for 4 hours with PMA (Absin, Cat. No. abs9107), ionomycin (Sigma-Aldrich, Cat. No. I0634), and brefeldin A (MedChemExpress, Cat. No. HY-16592). For intracellular cytokine staining, cells were first surface-stained as described above, then fixed and permeabilized using the BD Cytofix/Cytoperm™ kit (BD Biosciences, Cat. No. 554714) according to the manufacturer ’s protocol. Intracellular proteins were stained with directly conjugated antibodies targeting IL-9, IL-17a, IL-4, IFN-γ, TNF-α, FOXP3, p-ZAP70, Perforin, and […]
Antibodies used for mouse samples included those against IL-9 (PE, clone RM9A4, Biolegend, Cat. No. 514104), IFN-γ (PE, clone XMG1.2, Biolegend, Cat. No.
Cat. No. 103138), CD4 (APC/Cy7, clone E-AB-F1353UJ, Elabscience, Cat. No.
AF18028), CD8α (PerCP/Cy5.5, clone E-AB-F1104UJ, Elabscience, Cat. No. […]
clone E-AB-F1187UH, Elabscience, Cat. No. AF19854), TNF-α (BV421, clone MP6-XT22, Biolegend, Cat. No. 506328), FOXP3 (PE, clone FJK-16s, eBioscience, Cat. No.
Perforin (APC, clone S16009A, Biolegend, Cat. No. 154303) and Granzyme B (APC, […]
clone QA16A02, Biolegend, Cat. No. 372203). […]
Figure S1. EpA enhances immune responses. […]
I) Representative flow-cytometric plots of endogenous CD4⁺ and CD8⁺ T cells in spleens (F), LNs (G), and tumors (H); frequencies and absolute numbers of endogenous CD4⁺ (G) and CD8⁺ (I) T cells in LNs are quantified. (J and K) […]
Statistical analysis was performed using two-way ANOVA with Tukey’s post hoc test (A), one-way ANOVA with Tukey’s post hoc test (B) or two-tailed unpaired Student’s t-test (D and G–M). ns, not significant. *p < 0.05, **p < 0.01, ****p < 0.0001.
(also on this page, place not known: Mouse weight (g) CtrlEpA CtrlEpA CtrlEpA0 I CD45.1+ T cells (%) CtrlEpA CD4+ T cells (%) CtrlEpA CtrlEpA CtrlEpA FSC CD8 CD8 FSC FSC FSC BNumber of CD45.1+ T cells (×103 per mgĎ Number of CD4+ T cells (×104 per mgĎ DC (%)NK cells (%) NK cells (%) DC (%) Number of DC (×103 per mg) Number of NK cells (×105) Number of NK cells (×103 per mg) Number of DC (×105) FSC FSC FSC CD8 CtrlEpA CtrlEpA CtrlEpA CD8+ T cells (%) Number of CD8+ T cells (×104 per mgĎ nsns ns nsns ns 40 IL-6 (pg/ml)) […]

[2] = tested on: human Th9 CAR T cells; assay: CAR lentivirus infection efficiency, GFP (S9C); assay type: cell-based; conditions: representative flow plot, Figure S9C
Excerpt: Ct EpA Fat Fat Ct EpA Fat Fat
(A) Flow-cytometric analysis of intracellular IL-9 expression in human Th9 cells […]
(B) Flow-cytometric assessment of mitochondrial mass using Mito Tracker in human Th9 cells treated as in (A) (n = 3).
(C) Flow-cytometric analysis of infection efficiency in Th9 cells transduced with a CD19-directed CAR lentivirus. (D and E) Flow-cytometric analysis of IL-9 expression in human Th9 CAR-T cells on days 5 and 6 of in vitro differentiation, showing representative plots (D) and quantification (E) (n = 3). (F) Measurement of intracellular ATP levels normalized to cell number in human Th9 CAR-T c e l l s (n =5).
(G) Flow-cytometric analysis of mitochondrial mass using Mito Tracker in human Th9 CAR-T c e l l s (n = 3). (H and I) Flow-cytometric analysis of granzyme B⁺ CAR-Th9 cells isolated from spleens after adoptive transfer, showing representative plots (H) and quantification (I) (n = 5 mice per group). Statistical analysis was performed using one-way ANOVA with Tukey’s post hoc test (A and B), or two-tailed unpaired Student’s t-test (E–G, and I). Repeated data are presented as mean ± SEM. *p < 0.05, […]

[3] = spleens, individual mice, n = 4

anteiso-C15 Leu7 surfactin [EpA]
Frequencies of endogenous CD8⁺ T cells in LN ([1]; LN, replicate 1): 31.6
Frequencies of endogenous CD8⁺ T cells in LN ([1]; LN, replicate 2): 27.8
Frequencies of endogenous CD8⁺ T cells in LN ([1]; LN, replicate 3): 36.5
Frequencies of endogenous CD8⁺ T cells in LN ([1]; LN, replicate 4): 27.9
Number of endogenous CD8⁺ T cells in LN ([1]; LN, replicate 1): 49988.9
Number of endogenous CD8⁺ T cells in LN ([1]; LN, replicate 2): 41201.1
Number of endogenous CD8⁺ T cells in LN ([1]; LN, replicate 3): 21505.6
Number of endogenous CD8⁺ T cells in LN ([1]; LN, replicate 4): 20877.6
CD8 gate number ([1]; LN, Figure S1G): 36.5
CD8 gate number ([1]; Spleen, Figure S1F): 34.5
CD8 gate number ([1]; Tumor, Figure S1H): 54.0
endogenous CD8+ T cell frequency ([1]; lymph nodes, result in words): modest frequency increase
endogenous CD8+ T cell total numbers ([1]; lymph nodes, result in words): unchanged total numbers
endogenous CD8+ T cell frequency and number ([1]; spleens and tumors, result in words): markedly increased in both frequency and absolute number
endogenous CD8 (%) [1, 3]: 30.4% and 27.2% and 30.6% and 34.5%
number of CD8 T cells [1, 3]: 3878238 and 3825743 and 3962312 and 3201124
endogenous CD8 T cells (%) ([1]; tumors, individual mice, n = 4): 54% and 34.7% and 36.8% and 55.2%
number of endogenous CD8 T cells ([1]; tumors, individual mice, n = 4): 176 and 424 and 563 and 172
GFP gate number (infection efficiency) [2]: 47.8

— article PMC12867150, “A fungi-derived cyclic peptide enhances Th9-mediated antitumor immunity by targeting ZAP70 and SREBP1” (The Journal of Clinical Investigation, 2025)
